Literature values, collected in patent US20260165989A1 (Société des Produits Nestlé S.A., priority 2024, published 2026).

Conditions: counter ion (base) for salt screening

## C[N+](C)(C)CC(=O)O [Betaine]
  pKa(s)*: 12.2
